Patent publication US9126945B2, “N-(3-carbamoylphenly)-1H-pyrazole-5-carboxamide derivatives and the use thereof for controlling animal pests” (BAYER INTELLECTUAL PROPERTY GMBH, priority 2011, dated 2015)

Key:
Spodoptera frugiperda [1] = experiment: Spodoptera frugiperda test (SPODFR spray treatment), maize leaf discs; assay type: in vivo; conditions: application rate 500 g/ha; after 7 days
Excerpt: Spodoptera frugiperda Test (SPODFR Spray Treatment)

Myzus persicae = experiment: Myzus test (MYZUPE spray treatment); assay type: in vivo; conditions: for efficacy in %: application rate 500 g/ha, after 6 days
Description: Myzus test (Myzupe spray treatment)
After 6 days, the efficacy in % is determined.
Myzus Test (MYZUPE Spray Treatment)

Tetranychus urticae [2] = experiment: Tetranychus test, OP-resistant (TETRUR spray treatment), bean leaf discs; assay type: in vivo; conditions: for efficacy in %: application rate 500 g/ha, after 6 days
Description: Tetranychus Test, OP-Resistant (TETRUR Spray Treatment)
After a time of 6 days, the efficacy in % is determined.

Ctenocephalides felis = Ctenocephalides felis oral (CTECFE); assay type: in vivo; conditions: for kill in % (effect): 100 ppm, after 2 days; for inhibition at 0.8 ppm: Ctenocephalides felis, po, 48 h, CTECFE, 2 dat
Description: Ctenocephalides felis Oral (CTECFE)
Solvent: 1 part by weight of dimethyl sulphoxide
For the purpose of producing a suitable preparation of active compound, 10 mg of active compound are mixed with 0.5 ml of dimethyl sulphoxide. A portion of the concentrate is diluted with citrated cattle blood, and the desired concentration is prepared.
(§1) About 20 unfed adult fleas (Ctenocephalides felis) are placed into a chamber which is closed at the top and bottom with gauze. A metal cylinder whose bottom end is closed with parafilm is placed onto the chamber. The cylinder contains the blood/active compound preparation, which can be taken up by the fleas through the parafilm membrane. After 2 days, the kill in % is determined.
For the purpose of preparing an appropriate active compound formulation, 10 mg of active compound are mixed with 0.5 ml of dimethyl sulphoxide. A portion of the concentrate is diluted with citrated cattle blood, and the desired concentration is prepared.
as §1, with “membrane.” for “membrane. After 2 days, the kill in % is determined.”

Lucilia cuprina larvae = experiment: Lucilia cuprina test (LUCICU); assay type: in vivo; conditions: 100 ppm; after 2 days
Description: Lucilia cuprina Test (LUCICU)
(§2) Solvent: dimethyl sulphoxide
Vessels containing horse meat treated with the active compound preparation of the desired concentration are populated with about 20 Lucilia cuprina larvae.
(§3) After 2 days, the kill in % is determined.

Musca domestica = Musca domestica test (MUSCDO); assay type: in vivo; conditions: 100 ppm; after 2 days
Description: Musca domestica Test (MUSCDO)
as §2
Vessels containing a sponge treated with the active compound preparation of the desired concentration are populated with adult Musca domestica.
as §3
Vessels containing a sponge treated with the active compound formulation of the desired concentration are populated with adult Musca domestica.
After the desired period of time, the kill in % is determined.

Boophilus microplus = Boophilus microplus test (BOOPMI injection); assay type: in vivo; conditions: for efficacy in % (laying of fertile eggs): 20 μg/animal, after 7 days; for % Activity dat: BOOPMI injection, 0.032 μg/animal, 7 dat
Description: Boophilus microplus Test (BOOPMI Injection)
as §2
The active compound solution is injected into the abdomen (Boophilus microplus), and the animals are transferred into dishes and stored in a climate-controlled room. The activity is assessed by laying of fertile eggs.
The active compound solution is injected into the abdomen (Boophilus microplus), and the animals are transferred into dishes and stored in a climate-controlled room.
The activity is assessed by laying of fertile eggs. 100% means that none of the ticks has laid any fertile eggs.

[3] = test system: Boophilus microplus females of the SP-resistant Parkhurst strain; experiment: Boophilus microplus test (DIP); assay type: in vivo; conditions: for efficacy in % (laying of fertile eggs): 100 ppm, after 7 days; for inhibition at 20 ppm: Rhipicephalus microplus, 168 h, BOOPMI DIP, 7 dat
Description: Boophilus microplus Test (DIP)
Test animals: adult engorged Boophilus microplus females of the SP-resistant Parkhurst strain
as §2
10 mg of active compound are dissolved in 0.5 ml of dimethyl sulphoxide. For the purpose of preparing a suitable formulation, the active compound solution is diluted with water to the concentration desired in each case.
This active compound preparation is pipetted into tubes. 8-10 ticks are transferred into a further tube with holes. The tube is immersed into the active compound formulation, and all ticks are completely wetted. After the liquid has rum off, the ticks are transferred to filter discs in plastic dishes and kept in a climatized room. The activity is assessed after 7 days by laying of fertile eggs. Eggs whose fertility is not outwardly visible are stored in glass tubes in a climate-controlled cabinet until the larvae hatch. An efficacy of 100% means that none of the ticks has laid any fertile eggs.
10 mg of active compound are dissolved in 0.5 ml of dimethyl sulphoxide. For the purpose of preparing a suitable formulation, the active compound solution is diluted with water to the concentration desired in each case (in ppm).
This active compound preparation is pipetted into tubes. 8-10 ticks are transferred into a further tube with holes. The tube is immersed into the active compound formulation, and all ticks are completely wetted. After the liquid has run out, the ticks are transferred onto filter discs in plastic dishes and stored in a climate-controlled room.
The activity is assessed after the desired time by laying of fertile eggs. Eggs whose fertility is not evident from the outside are kept in glass tubes in a climate-controlled cabinet until the larvae have hatched. An effect of 100% means that none of the ticks has laid any fertile eggs.

Phaedon cochleariae [4] = experiment: Phaedon cochleariae spray test (PHAECO), cabbage leaves, ppm; assay type: in vivo; conditions: 168 h, 0.8 ppm, 7 dat
Excerpt: Phaedon cochleariae Spray Test (PHAECO)
(§4) Solvent: 7 parts by weight of dimethylformamide
(§5) Emulsifier: 2 parts by weight of alkylaryl polyglycol ether
(§6) If the addition of ammonium salts or/and penetrants is required, these are in each case added in a concentration of 1000 ppm to the solution of the preparation.

Nilaparvata lugens = Nilaparvata lugens spray test (NILALU); assay type: in vivo; conditions: 168 h, 7 dat
Excerpt: Nilaparvata lugens Spray Test (NILALU)
as §6

[5] = log P by HPLC, EEC Directive 79/831 Annex V.A8, method a); assay type: physicochemical; conditions: reversed-phase C18, acetonitrile/water with formic acid, gradient 10% to 95% acetonitrile; for chromatographic logP: reversed-phase C18 HPLC column; cell marked a): HPLC; for logP: cell marked a): HPLC
Description: (§7) ^a) Note regarding the determination of the log P values and mass detection The determination of the given log P values was carried out in accordance with EEC Directive 79/831 Annex V.A8 by HPLC (High Performance Liquid Chromatography) on a reversed-phase column (C18). Agilent 1100 LC system; 50*4.6 Zorbax Eclipse Plus C18 1.8 micron; mobile phase A: acetonitrile (0.1% formic acid); mobile phase B: water (0.09% formic acid); linear gradient from 10% acetonitrile to 95% acetonitrile in 4.25 min, then 95% acetonitrile for a further 1.25 min; oven temperature 55° C.; flow rate: 2.0 ml/min Mass detection is via an Agilend MSD system.
as §7, with “mass detection:” for “mass detection”, “2.0 ml/min.” for “2.0 ml/min”

Phaedon cochleariae [6] = experiment: Phaedon test (PHAECO spray treatment), Chinese cabbage leaf discs; conditions: application rate 500 g/ha; after 7 days
Plutella xylostella = Plutella xylostella spray test (PLUTMA); assay type: in vivo; conditions: 168 h, 7 dat
Excerpt: Plutella xylostella Spray Test (PLUTMA)
as §4, §5, §6

Spodoptera frugiperda [7] = experiment: Spodoptera frugiperda spray test (SPODFR), cotton leaves, ppm; assay type: in vivo; conditions: 168 h, 7 dat
Excerpt: Spodoptera frugiperda Spray Test (SPODFR)
as §4, §5, §6
Cotton leaves (Gossypium hirsutum) are sprayed with an active compound formulation of the desired concentration and populated with caterpillars of the armyworm (Spodoptera frugiperda).

Tetranychus urticae [8] = experiment: Tetranychus urticae spray test, OP-resistant (TETRUR), bean plants, ppm; assay type: in vivo; conditions: 168 h, 4 ppm, 7 dat
Excerpt: Tetranychus urticae Spray Test, OP-Resistant (TETRUR)
as §4, §5, §6

Heliothis armigera = Heliothis armigera spray test (HELIAR); assay type: in vivo; conditions: Helicoverpa armigera, 168 h, 20 ppm, 7 dat
Excerpt: Heliothis armigera Spray Test (HELIAR)
as §4, §5, §6

[9] = test system: Frankliniella occidentalis; experiment: Frankliniella occidentalis spray test (FRANOC); assay type: in vivo; conditions: 168 h, 20 g/ha, 7 dat
Excerpt: Frankliniella occidentalis Spray Test (FRANOC)
as §6

| Structure (SMILES) | efficacy in % (Spodoptera frugiperda [1]) [%] | efficacy in % (Myzus persicae) [%] | efficacy in % (Tetranychus urticae [2]) [%] | kill in % (effect) (Ctenocephalides felis) [%] | inhibition at 0.8 ppm (Ctenocephalides felis) [%] | kill in % (efficacy) (Lucilia cuprina larvae) [%] | kill in % (efficacy) (Musca domestica) [%] | efficacy in % (laying of fertile eggs) (Boophilus microplus) [%] | % Activity dat (Boophilus microplus) [%] | efficacy in % (laying of fertile eggs) [3] [%] | inhibition at 20 ppm [3] [%] | inhibition at 0.8 ppm (Phaedon cochleariae [4]) [%] | chromatographic logP [5] | efficacy in % (Phaedon cochleariae [6]) [%] | logP [5] | inhibition at 20 ppm (Spodoptera frugiperda [7]) [%] | inhibition at 4 ppm (Tetranychus urticae [8]) [%] | other results |
| --- | --- | --- | --- | --- | --- | --- | --- | --- | --- | --- | --- | --- | --- | --- | --- | --- | --- | --- |
| CCN(C(=O)c1c(C(F)(F)F)c(C(F)(F)C(F)(F)F)nn1C)c1ccc(Cl)c(C(=O)NC2(C#N)CC2)c1 [Example 6] | 100 | 100 | 100 | 100 | 80 | 100 | 100 | 100 | 70 | 100 | 100 | 100 | 3.36 | 100 | – | – | – | inhibition at 20 g/ha (Myzus persicae; Myzus persicae, 144 h, MYZUPE, 20 g/ha, 6 dat): 70%; inhibition at 20 g/ha (Tetranychus urticae [2]; Tetranychus urticae, foliar, 144 h, TETRUR, 20 g/ha, 6 dat): 100%; inhibition at 20 g/ha (Nilaparvata lugens; 20 g/ha): 90% |
| Cn1nc(C(F)(F)C(F)(F)F)c(C(F)(F)F)c1C(=O)Nc1ccc(Cl)c(C(=O)NC2(C#N)CCC2)c1 [Example 7] | 83 | – | 100 | 80 | – | 100 | 100 | 100 | – | – | – | – | – | 100 | 3.55 ^a) | – | – | – |
| CN(C(=O)c1c(C(F)(F)F)c(C(F)(F)C(F)(F)F)nn1C)c1ccc(Cl)c(C(=O)NC2(C#N)CC2)c1 [Example 8] | 100 | 100 | 100 | 100 | 90 | 100 | 100 | 100 | 100 | 100 | 100 | 100 | 3.21 | 100 | – | 100 | 95 | inhibition at 100 g/ha (Myzus persicae; Myzus persicae, 144 h, MYZUPE, 100 g/ha, 6 dat): 100%; inhibition at 20 ppm (Plutella xylostella): 100% |
| Cn1nc(C(F)(F)F)c(C(F)(F)F)c1C(=O)Nc1ccc(Cl)c(C(=O)NC2(C#N)CC2)c1 [Example 9] | 100 | 90 | 100 | 100 | – | 100 | – | 100 | – | 100 | – | – | – | 100 | 2.85 ^a) | – | – | – |
| Cn1nc(C(F)(F)C(F)(F)F)c(C(F)(F)F)c1C(=O)Nc1ccc(Cl)c(C(=O)NC2CC2)c1 [Ik-1] | – | – | – | – | 0 | – | – | – | – | – | – | – | – | – | – | 20 | 40 | inhibition at 20 ppm (Heliothis armigera): 45%; inhibition at 500 g/ha (Nilaparvata lugens; 500 g/ha): 0%; inhibition at 20 g/ha [9]: 0% |
